Measurements from patent publication US20090226527A1, “Particulate-stabilized injectable pharmacutical compositions of posaconazole” (priority 2004, published 2009).
Values after ≈ are worked out from the molar mass of the structure shown.

Test system: infectious agents (strains tested)
Test: organism not typed
Assay type: cell-based

CCC(C)n1ncn(-c2ccc(N3CCN(c4ccc(OCC5COC(Cn6cncn6)(c6ccc(Cl)cc6Cl)O5)cc4)CC3)cc2)c1=O (stereo not shown) [Itraconazole]
MIC (Absidia spp, read-out: Geometric Mean MIC): 0.229 µg/mL (≈ 0.325 µM) | MIC (Absidia spp, read-out: MIC[90]): 0.063 to 2 µg/mL (≈ 0.0893 to 2.83 µM) | MIC (Alternaria spp, read-out: Geometric Mean MIC): 0.326 µg/mL (≈ 0.462 µM) | MIC (Alternaria spp, read-out: MIC[90]): 1 µg/mL (≈ 1.42 µM) | MIC (Apophysomyces spp, read-out: Geometric Mean MIC): 0.707 µg/mL (≈ 1 µM) | MIC (Apophysomyces spp, read-out: MIC[90]): 0.031 to 8 µg/mL (≈ 0.0439 to 11.3 µM) | MIC (Arthroderma terrestre, Trichophyton terrestre, read-out: Geometric Mean MIC): 0.25 µg/mL (≈ 0.354 µM) | MIC (Arthroderma terrestre, Trichophyton terrestre, read-out: MIC[90]): 0.25 µg/mL (≈ 0.354 µM) | MIC (Aspergillus flavus, read-out: Geometric Mean MIC): 0.213 µg/mL (≈ 0.302 µM) | MIC (Aspergillus flavus, read-out: MIC[90]): 1 µg/mL (≈ 1.42 µM) | MIC (Aspergillus fumigatus, read-out: Geometric Mean MIC): 0.397 µg/mL (≈ 0.563 µM) | MIC (Aspergillus fumigatus, read-out: MIC[90]): 1 µg/mL (≈ 1.42 µM) | MIC (Aspergillus nidulans, read-out: Geometric Mean MIC): 0.186 µg/mL (≈ 0.264 µM) | MIC (Aspergillus nidulans, read-out: MIC[90]): 0.5 µg/mL (≈ 0.709 µM) | MIC (Aspergillus niger, read-out: Geometric Mean MIC): 0.834 µg/mL (≈ 1.18 µM) | MIC (Aspergillus niger, read-out: MIC[90]): 2 µg/mL (≈ 2.83 µM) | MIC (Aspergillus sydowii, read-out: Geometric Mean MIC): 0.5 µg/mL (≈ 0.709 µM) | MIC (Aspergillus sydowii, read-out: MIC[90]): 0.125 to 2 µg/mL (≈ 0.177 to 2.83 µM) | MIC (Aspergillus terreus, read-out: Geometric Mean MIC): 0.229 µg/mL (≈ 0.325 µM) | MIC (Aspergillus terreus, read-out: MIC[90]): 0.5 µg/mL (≈ 0.709 µM) | MIC (Aspergillus ustus, read-out: Geometric Mean MIC): 0.906 µg/mL (≈ 1.28 µM) | MIC (Aspergillus ustus, read-out: MIC[90]): 0.125 to 2 µg/mL (≈ 0.177 to 2.83 µM) | MIC (Bipolaris spp, read-out: Geometric Mean MIC): 0.25 µg/mL (≈ 0.354 µM) | MIC (Bipolaris spp, read-out: MIC[90]): 0.25 µg/mL (≈ 0.354 µM) | MIC (Bjerkandera adusta, read-out: Geometric Mean MIC): 0.057 µg/mL (≈ 0.0808 µM) | MIC (Bjerkandera adusta, read-out: MIC[90]): 0.063 µg/mL (≈ 0.0893 µM) | MIC (Blastomyces dermatitidis, read-out: Geometric Mean MIC): 0.045 µg/mL (≈ 0.0638 µM) | MIC (Blastomyces dermatitidis, read-out: MIC[90]): 2 µg/mL (≈ 2.83 µM) | MIC (Candida albicans, read-out: Geometric Mean MIC): 0.064 µg/mL (≈ 0.0907 µM) | MIC (Candida albicans, read-out: MIC[90]): 0.25 µg/mL (≈ 0.354 µM) | MIC (Candida dubliniensis, read-out: Geometric Mean MIC): 0.107 µg/mL (≈ 0.152 µM) | MIC (Candida dubliniensis, read-out: MIC[90]): 0.5 µg/mL (≈ 0.709 µM) | MIC (Candida tropicalis, read-out: Geometric Mean MIC): 0.167 µg/mL (≈ 0.237 µM) | MIC (Candida tropicalis, read-out: MIC[90]): 0.5 µg/mL (≈ 0.709 µM) | MIC (Clavispora lusitaniae, Candida lusitaniae, read-out: Geometric Mean MIC): 0.216 µg/mL (≈ 0.306 µM) | MIC (Clavispora lusitaniae, Candida lusitaniae, read-out: MIC[90]): 1 µg/mL (≈ 1.42 µM) | MIC (Coccidioides immitis, read-out: Geometric Mean MIC, Coccidioides immitis): 0.198 µg/mL (≈ 0.281 µM) | MIC (Coccidioides immitis, read-out: MIC[90], Coccidioides immitis): 0.25 µg/mL (≈ 0.354 µM) | MIC (Cryptococcus neoformans, read-out: Geometric Mean MIC): 0.444 µg/mL (≈ 0.629 µM) | MIC (Cryptococcus neoformans, read-out: MIC[90]): 4 µg/mL (≈ 5.67 µM) | MIC (Curvularia spp, read-out: Geometric Mean MIC): 0.5 µg/mL (≈ 0.709 µM) | MIC (Curvularia spp, read-out: MIC[90]): 0.5 µg/mL (≈ 0.709 µM) | MIC (Debaryomyces hansenii, Candida famata, read-out: Geometric Mean MIC): 0.348 µg/mL (≈ 0.493 µM) | MIC (Debaryomyces hansenii, Candida famata, read-out: MIC[90]): 1 µg/mL (≈ 1.42 µM) | MIC (Diutina rugosa, Candida rugosa, read-out: Geometric Mean MIC): 0.196 µg/mL (≈ 0.278 µM) | MIC (Diutina rugosa, Candida rugosa, read-out: MIC[90]): 4 µg/mL (≈ 5.67 µM) | MIC (Dujonia zeylanoides, Candida zeylanoides, read-out: Geometric Mean MIC): 0.105 µg/mL (≈ 0.149 µM) | MIC (Dujonia zeylanoides, Candida zeylanoides, read-out: MIC[90]): 0.031 to 0.5 µg/mL (≈ 0.0439 to 0.709 µM) | MIC (Epidermophyton floccosum, read-out: Geometric Mean MIC): 0.088 µg/mL (≈ 0.125 µM) | MIC (Epidermophyton floccosum, read-out: MIC[90]): 32 µg/mL (≈ 45.3 µM) | MIC (Exophiala dermatidis, read-out: Geometric Mean MIC): 1 µg/mL (≈ 1.42 µM) | MIC (Exophiala dermatidis, read-out: MIC[90]): 1 µg/mL (≈ 1.42 µM) | MIC (Exophiala dermatitidis, Wangiella dermatitidis, read-out: Geometric Mean MIC): 0.5 µg/mL (≈ 0.709 µM) | MIC (Exophiala dermatitidis, Wangiella dermatitidis, read-out: MIC[90]): 0.063 to 1 µg/mL (≈ 0.0893 to 1.42 µM) | MIC (Exophiala jeanselmei, read-out: Geometric Mean MIC): 0.467 µg/mL (≈ 0.662 µM) | MIC (Exophiala jeanselmei, read-out: MIC[90]): 1 µg/mL (≈ 1.42 µM) | MIC (Exophiala moniliae, read-out: Geometric Mean MIC): 0.031 µg/mL (≈ 0.0439 µM) | MIC (Exophiala moniliae, read-out: MIC[90]): 0.031 µg/mL (≈ 0.0439 µM) | MIC (Fonsecae pedrosoi, read-out: Geometric Mean MIC): 0.063 µg/mL (≈ 0.0893 µM) | MIC (Fonsecae pedrosoi, read-out: MIC[90]): 0.008 to 0.5 µg/mL (≈ 0.0113 to 0.709 µM) | MIC (Fusarium spp, read-out: Geometric Mean MIC): 13.3 µg/mL (≈ 18.8 µM) | MIC (Fusarium spp, read-out: MIC[90]): 16 µg/mL (≈ 22.7 µM) | MIC (Hansenula anomala, Pichia anomala, read-out: Geometric Mean MIC): 0.375 µg/mL (≈ 0.531 µM) | MIC (Hansenula anomala, Pichia anomala, read-out: MIC[90]): 1 µg/mL (≈ 1.42 µM) | MIC (Histoplasma capsulatum, read-out: Geometric Mean MIC, Histoplasma capsulatum): 0.018 µg/mL (≈ 0.0255 µM) | MIC (Histoplasma capsulatum, read-out: MIC[90], Histoplasma capsulatum): 0.063 µg/mL (≈ 0.0893 µM) | MIC (Kluyveromyces marxianus, Candida kefyr, read-out: Geometric Mean MIC): 0.188 µg/mL (≈ 0.266 µM) | MIC (Kluyveromyces marxianus, Candida kefyr, read-out: MIC[90]): 0.5 µg/mL (≈ 0.709 µM) | MIC (Kluyveromyces marxianus, read-out: Geometric Mean MIC): 0.07 µg/mL (≈ 0.0992 µM) | MIC (Kluyveromyces marxianus, read-out: MIC[90]): 0.031 to 0.125 µg/mL (≈ 0.0439 to 0.177 µM) | MIC (Lodderomyces parapsilosis, Candida parapsilosis, read-out: Geometric Mean MIC): 0.161 µg/mL (≈ 0.228 µM) | MIC (Lodderomyces parapsilosis, Candida parapsilosis, read-out: MIC[90]): 0.5 µg/mL (≈ 0.709 µM) | MIC (Meyerozyma guilliermondii, Candida guilliermondii, read-out: Geometric Mean MIC): 0.479 µg/mL (≈ 0.679 µM) | MIC (Meyerozyma guilliermondii, Candida guilliermondii, read-out: MIC[90]): 1 µg/mL (≈ 1.42 µM) | MIC (Microsporum audouinii, read-out: Geometric Mean MIC): 0.125 µg/mL (≈ 0.177 µM) | MIC (Microsporum audouinii, read-out: MIC[90]): 0.125 µg/mL (≈ 0.177 µM) | MIC (Microsporum canis, read-out: Geometric Mean MIC): 0.041 µg/mL (≈ 0.0581 µM) | MIC (Microsporum canis, read-out: MIC[90]): 2 µg/mL (≈ 2.83 µM) | MIC (Mucor spp, read-out: Geometric Mean MIC): 2.38 µg/mL (≈ 3.37 µM) | MIC (Mucor spp, read-out: MIC[90]): 16 µg/mL (≈ 22.7 µM) | MIC (Nakaseomyces glabratus, Candida glabrata, read-out: Geometric Mean MIC): 0.853 µg/mL (≈ 1.21 µM) | MIC (Nakaseomyces glabratus, Candida glabrata, read-out: MIC[90]): 4 µg/mL (≈ 5.67 µM) | MIC (Nannizzia fulva, Microsporum fulvum, read-out: Geometric Mean MIC): 4 µg/mL (≈ 5.67 µM) | MIC (Nannizzia fulva, Microsporum fulvum, read-out: MIC[90]): 4 µg/mL (≈ 5.67 µM) | MIC (Nannizzia gypsea, Microsporum gypseum, read-out: Geometric Mean MIC): 0.044 µg/mL (≈ 0.0624 µM) | MIC (Nannizzia gypsea, Microsporum gypseum, read-out: MIC[90]): 0.016 to 0.5 µg/mL (≈ 0.0227 to 0.709 µM) | MIC (Nannizzia persicolor, Microsporum persicolor, read-out: Geometric Mean MIC): 0.5 µg/mL (≈ 0.709 µM) | MIC (Nannizzia persicolor, Microsporum persicolor, read-out: MIC[90]): 0.5 µg/mL (≈ 0.709 µM) | MIC (Paecilomyces spp, read-out: Geometric Mean MIC): 0.64 µg/mL (≈ 0.907 µM) | MIC (Paecilomyces spp, read-out: MIC[90]): 2 µg/mL (≈ 2.83 µM) | MIC (Papiliotrema laurentii, Cryptococcus laurentii, read-out: Geometric Mean MIC): 0.397 µg/mL (≈ 0.563 µM) | MIC (Papiliotrema laurentii, Cryptococcus laurentii, read-out: MIC[90]): 0.25 to 0.5 µg/mL (≈ 0.354 to 0.709 µM) | MIC (Paracoccidioides brasiliensis, read-out: Geometric Mean MIC, Paracoccidioides brasiliensis): 0.025 µg/mL (≈ 0.0354 µM) | MIC (Paracoccidioides brasiliensis, read-out: MIC[90], Paracoccidioides brasiliensis): 0.063 µg/mL (≈ 0.0893 µM) | MIC (Penicillium spp, read-out: Geometric Mean MIC): 0.853 µg/mL (≈ 1.21 µM) | MIC (Penicillium spp, read-out: MIC[90]): 2 µg/mL (≈ 2.83 µM) | MIC (Pichia kudriavzevii, Candida krusei, read-out: Geometric Mean MIC): 0.576 µg/mL (≈ 0.816 µM) | MIC (Pichia kudriavzevii, Candida krusei, read-out: MIC[90]): 1 µg/mL (≈ 1.42 µM) | MIC (Pleurothecium obovoideum, Ramichloridium obovoideum, read-out: Geometric Mean MIC): 0.016 µg/mL (≈ 0.0227 µM) | MIC (Pleurothecium obovoideum, Ramichloridium obovoideum, read-out: MIC[90]): 0.016 µg/mL (≈ 0.0227 µM) | MIC (Rhizomucor spp, read-out: Geometric Mean MIC): 0.016 µg/mL (≈ 0.0227 µM) | MIC (Rhizomucor spp, read-out: MIC[90]): 0.016 µg/mL (≈ 0.0227 µM) | MIC (Rhizopus spp, read-out: Geometric Mean MIC): 3.28 µg/mL (≈ 4.65 µM) | MIC (Rhizopus spp, read-out: MIC[90]): 16 µg/mL (≈ 22.7 µM) | MIC (Saccharomyces cerevisiae, read-out: Geometric Mean MIC): 0.418 µg/mL (≈ 0.592 µM) | MIC (Saccharomyces cerevisiae, read-out: MIC[90]): 2 µg/mL (≈ 2.83 µM) | MIC (Scedosporium apiospermum, read-out: Geometric Mean MIC): 1.34 µg/mL (≈ 1.9 µM) | MIC (Scedosporium apiospermum, read-out: MIC[90]): 32 µg/mL (≈ 45.3 µM) | MIC (Scedosporium boydii, Pseudallescheria boydii, read-out: Geometric Mean MIC): 0.506 µg/mL (≈ 0.717 µM) | MIC (Scedosporium boydii, Pseudallescheria boydii, read-out: MIC[90]): 1 µg/mL (≈ 1.42 µM) | MIC (Sporothrix schenckii, read-out: Geometric Mean MIC): 0.302 µg/mL (≈ 0.428 µM) | MIC (Sporothrix schenckii, read-out: MIC[90]): 0.5 µg/mL (≈ 0.709 µM) | MIC (Trichophyton mentagrophytes, read-out: Geometric Mean MIC): 0.041 µg/mL (≈ 0.0581 µM) | MIC (Trichophyton mentagrophytes, read-out: MIC[90]): 0.25 µg/mL (≈ 0.354 µM) | MIC (Trichophyton rubrum, Trichophyton raubitschekii, read-out: Geometric Mean MIC): 0.25 µg/mL (≈ 0.354 µM) | MIC (Trichophyton rubrum, Trichophyton raubitschekii, read-out: MIC[90]): 0.25 µg/mL (≈ 0.354 µM) | MIC (Trichophyton rubrum, read-out: Geometric Mean MIC): 0.074 µg/mL (≈ 0.105 µM) | MIC (Trichophyton rubrum, read-out: MIC[90]): 0.25 µg/mL (≈ 0.354 µM) | MIC (Trichophyton soudanense, read-out: Geometric Mean MIC): 4 µg/mL (≈ 5.67 µM) | MIC (Trichophyton soudanense, read-out: MIC[90]): 4 µg/mL (≈ 5.67 µM) | MIC (Trichophyton tonsurans, read-out: Geometric Mean MIC): 0.036 µg/mL (≈ 0.051 µM) | MIC (Trichophyton tonsurans, read-out: MIC[90]): 0.063 µg/mL (≈ 0.0893 µM) | MIC (Trichosporon spp, read-out: Geometric Mean MIC): 1.12 µg/mL (≈ 1.59 µM) | MIC (Trichosporon spp, read-out: MIC[90]): 0.5 to 2 µg/mL (≈ 0.709 to 2.83 µM)
